This is an account of results in patent US20250340863A1, “POLYPEPTIDE-ENCODED LIBRARY AND SCREENING METHOD USING SAME” (WHOLESOME FUTURE LIMITED, priority 2022, published 2025).

SMILES strings stand for the structures.

This experiment concerns the target T1, HDAC6 (Homo sapiens, UniProt Q9UBN7).
T1 construct: made in house; host or cells: E. coli BL21 (DE3), pET-28a plasmid
T1 sequence (Q9UBN7 1-1215): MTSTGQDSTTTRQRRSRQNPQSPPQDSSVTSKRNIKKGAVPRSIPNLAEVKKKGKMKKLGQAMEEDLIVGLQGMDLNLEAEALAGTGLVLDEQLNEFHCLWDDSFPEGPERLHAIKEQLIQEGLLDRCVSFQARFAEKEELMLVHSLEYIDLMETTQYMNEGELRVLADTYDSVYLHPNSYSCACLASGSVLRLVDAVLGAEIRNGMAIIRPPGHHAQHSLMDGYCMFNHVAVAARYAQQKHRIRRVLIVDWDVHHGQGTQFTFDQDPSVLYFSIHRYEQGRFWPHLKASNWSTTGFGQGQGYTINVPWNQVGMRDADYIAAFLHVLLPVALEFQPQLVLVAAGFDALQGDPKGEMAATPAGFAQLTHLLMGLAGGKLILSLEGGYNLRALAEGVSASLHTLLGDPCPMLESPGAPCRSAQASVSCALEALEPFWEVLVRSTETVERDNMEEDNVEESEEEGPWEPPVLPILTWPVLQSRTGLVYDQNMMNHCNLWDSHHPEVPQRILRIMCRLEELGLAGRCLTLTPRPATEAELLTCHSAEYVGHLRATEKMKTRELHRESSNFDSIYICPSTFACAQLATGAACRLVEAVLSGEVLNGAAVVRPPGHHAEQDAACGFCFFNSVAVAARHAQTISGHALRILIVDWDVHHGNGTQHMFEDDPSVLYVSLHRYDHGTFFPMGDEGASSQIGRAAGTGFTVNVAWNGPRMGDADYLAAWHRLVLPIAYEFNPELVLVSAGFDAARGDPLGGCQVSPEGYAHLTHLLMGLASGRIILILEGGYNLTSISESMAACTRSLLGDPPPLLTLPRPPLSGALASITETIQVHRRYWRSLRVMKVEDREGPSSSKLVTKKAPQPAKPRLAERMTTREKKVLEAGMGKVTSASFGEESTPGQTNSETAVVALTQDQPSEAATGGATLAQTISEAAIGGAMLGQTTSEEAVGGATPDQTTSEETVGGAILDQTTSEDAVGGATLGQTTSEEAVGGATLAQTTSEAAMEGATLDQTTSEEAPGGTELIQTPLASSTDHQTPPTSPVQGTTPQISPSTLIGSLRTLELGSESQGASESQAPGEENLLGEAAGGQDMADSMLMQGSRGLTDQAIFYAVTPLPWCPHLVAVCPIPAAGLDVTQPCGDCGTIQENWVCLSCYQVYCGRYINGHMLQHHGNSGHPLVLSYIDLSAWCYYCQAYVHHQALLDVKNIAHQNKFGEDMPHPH
Nature of the experiment: HDAC6 enzyme inhibition, fluorescence assay. The format is biochemical. As to conditions: for IC50: 7 concentrations, 4-fold dilution from 250 nM, 4 hours substrate incubation at room temperature; for Hill Slope: Hill slope of fitted dose-effect curve (GraphPad Prism); for Emax: top of fitted dose-effect curve of inhibition rate (GraphPad Prism). As to the method:
The compounds to be tested were balanced to room temperature, and the compounds were diluted 4 times with DMSO in a 384-well plate, with a starting working concentration of 250 nM and a total of 7 concentration gradients. 250 nl of the diluted drug solution was transferred to the 384-well reaction plate using Echo 550, where 250 nl of DMSO was transferred to the control wells Max and Min wells: the HDAC6 enzyme stock solution was diluted to 1.67× with 1× enzyme reaction system buffer solution; the reaction substrate was diluted to 2.5× with 1× enzyme reaction system buffer solution: 15 μl of the above diluted enzyme working solution was added to each reaction well, and 15 μl of 1× enzyme reaction system buffer solution was added to the Min well. Incubate at room temperature for 15 min; add 10 μl of the above-diluted enzyme reaction substrate to each reaction well and incubate at room temperature for 4 hours to allow the reaction to proceed fully; add 3.5×Trypsin reaction stop solution to each reaction well and incubate at 37° C. for 90 min to terminate the reaction; read the fluorescence signal at the end of the reaction on the microplate reader.
The calculation formula for the inhibition rate of the compound on HDAC6 is as follows:
Where […] is the mean of the detection values of the sample wells of each Max well (only DMSO and enzyme); […] represents the average value of the detection values of each Min well (without enzyme); Sample Signal is the mean of the detection values of each compound-treated well. The dose-effect curve was fitted using GraphPad Prism software, and the IC50 of the compound on enzyme inhibition was calculated (as shown in Table 5).

Regarding `Cc1ccccc1C(=O)C(=O)N1CC(O)OCC1C(=O)OCc1ccccc1C(=O)OCc1ccccc1Cl` (stereo not drawn) [Compound 8], it took 2.9 nM to reach half-maximal inhibition (IC50), the “Hill Slope” value worked out at 1.5 and the Emax was 101%.

As to `CC(COC(=O)c1cccc(COC(=O)C2COC(O)CN2C(=O)C(=O)C2=Cc3ccccc3C2)c1)c1ccccc1` (stereo not drawn) [Compound 16], the IC50 is 3.9 nM, the “Hill Slope” value came to 1 and the maximal effect (Emax) is 99%.

In the case of `O=C(C(=O)N1CC(O)OCC1C(=O)OCCC1CCCCC1C(=O)OCc1ccc(Cl)cc1)c1ccccn1` (stereo not drawn) [Compound 7], half-maximal inhibition (IC50) was put at 0.85 nM, the “Hill Slope” value was found to be 0.9 and the Emax amounted to 102%.

Regarding `Cc1ccccc1S(=O)(=O)N1CC(O)CCC1C(=O)OCCc1cnccc1C(=O)OCc1ccncc1` (stereo not drawn) [Compound 4], the IC50 worked out at 13.3 nM, the “Hill Slope” value turned out to be 1.06 and the Emax amounted to 91.4%.

For the compound `O=C(OCC1CCCCC1)c1ccc(COC(=O)C2COC(O)CN2C(=O)C(=O)c2cc3ccccc3[nH]2)nc1` (stereo not drawn) [Compound 1], the IC50 turned out to be 0.63 nM, the “Hill Slope” value stood at 1.2 and the Emax amounted to 96%.

Take `O=C(OCC1CCCCC1)c1ccnc(CCOC(=O)C2C[Se]C(O)CN2C(=O)C(=O)c2cccc3ccccc23)c1` (stereo not drawn) [Compound 14]: the IC50 turned out to be 132 nM, the “Hill Slope” value turned out to be 0.8 and the Emax amounted to 100%.

Regarding `O=C(OCc1ccccc1Cl)c1ccnc(CCOC(=O)C2CCC(O)CN2C(=O)C(=O)c2ccccn2)c1` (stereo not drawn) [Compound 20], the midpoint of inhibition, the IC50, lay at 53.8 nM; the “Hill Slope” value worked out at 0.83; the Emax came to 99.3%.

With `COc1cccc(COC(=O)c2cccc(CCOC(=O)C3CCC(O)CN3C(=O)C(=O)C3=Cc4ccccc4C3)c2)c1` (stereo not drawn) [Compound 17], the IC50 worked out at 0.58 nM, the “Hill Slope” value is given as 1.1 and the Emax is 102%.

For `Cc1ccc(C(=O)C(=O)N2CC(O)SCC2C(=O)OCc2cc(C(=O)OCc3cccc(Br)c3)ccn2)cc1` (stereo not drawn) [Compound 6], half-maximal inhibition (IC50) required 0.75 nM, the “Hill Slope” value stood at 1.1 and the Emax amounted to 100%.

As to `Cc1ccc(S(=O)(=O)N2CC(O)CCC2C(=O)OCc2ccc(C(=O)OCc3ccccc3Cl)cn2)cc1` (stereo not drawn) [Compound 9], it took 19.4 nM to reach half-maximal inhibition (IC50), the “Hill Slope” value worked out at 0.8205 and the Emax came to 96.4%.

In the case of `Cc1ccc(S(=O)(=O)N2CC(O)CCC2C(=O)OCCc2cccc(C(=O)OCc3ccccc3Cl)c2)cc1` (stereo not drawn) [Compound 10], the IC50 was 1.5 nM, the “Hill Slope” value is reported as 0.8 and the Emax is 98%.

In the case of `COc1ccc(COC(=O)c2ccc(CCOC(=O)C3C[Se]C(O)CN3C(=O)C(=O)c3ccncc3)nc2)cc1` (stereo not drawn) [Compound 12], half-maximal inhibition (IC50) required 0.41 nM, the “Hill Slope” value is recorded as 1.1 and the Emax was determined as 101%.

`O=C(OCC1CCCCC1)c1ccc(COC(=O)C2CCC(O)CN2C(=O)C(=O)c2cccc3ccccc23)nc1` (stereo not drawn) [Compound 15]: the IC50 is 5.99 nM, the “Hill Slope” value is reported as 0.8638 and the Emax was found to be 106%.

As for `O=C(C(=O)N1CC(O)CCC1C(=O)OCCC1CCCCC1C(=O)OCc1cccc(Br)c1)c1cc2ccccc2[nH]1` (stereo not drawn) [Compound 11], the IC50 was found to be 0.23 nM, the “Hill Slope” value is on record as 1 and the Emax is 100%.

Turning to `O=C(C(=O)N1CC(O)CCC1C(=O)OCCc1ccccc1C(=O)OCCc1ccccc1)c1ccccn1` (stereo not drawn) [Compound 13], half-maximal inhibition (IC50) was put at 2.2 nM, the “Hill Slope” value turned out to be 1.6 and the Emax turned out to be 98%.

Regarding `O=C(OCc1ccncc1)c1ccnc(CCOC(=O)C2CSC(O)CN2C(=O)C(=O)c2ccccn2)c1` (stereo not drawn) [Compound 18], the IC50 is 0.92 nM, the “Hill Slope” value stood at 1 and the Emax came to 102%.

Regarding `O=C(C(=O)N1CC(O)SCC1C(=O)OCCC1CCCCC1C(=O)OCc1ccccn1)c1cc2ccccc2[nH]1` (stereo not drawn) [Compound 19], half-maximal inhibition (IC50) was put at 2.6 nM, the “Hill Slope” value came out at 1.6 and the maximal effect (Emax) stood at 96%.

With `O=C(OCc1ccccn1)C1CCC(COC(=O)C2C[Se]C(O)CN2S(=O)(=O)c2ccccc2)CC1` (stereo not drawn) [Compound 2], half-maximal inhibition (IC50) required 0.85 nM, the “Hill Slope” value is 1.1 and the Emax was determined as 99%.

For orientation: IC50 means the point on the concentration scale where inhibition reaches its midpoint. High values mean weaker potency in that assay, low ones greater potency in that assay. As usually defined, the Emax is the size of the effect at its maximum, as opposed to the concentration needed.
